System: T1, β-glucosidase isoform II (β-glucosidase II, Sebg)
T1 construct: native, purified from fruit epicarp and mesocarp
Assay: p-nitrophenol release, nonlinear regression
Type: biochemical, Sechium edule
Conditions: 40 °C, 0.2 M sodium citrate pH 5.0 (pH 5.5)
Text: p-nitrophenol release, nonlinear regression on β-glucosidase isoform II (β-glucosidase II, Sebg)

Question: How did the Km turn out when C[C@H]1O[C@@H](Oc2ccc([N+](=O)[O-])cc2)[C@H](O)[C@@H](O)[C@H]1O [pNPFuc, p-Nitrophenyl-β-D-fucopyranoside] was run?
Answer: 16.1 ± 2.62 mM

Question: Which Km does the source give for O=[N+]([O-])c1ccc(O[C@@H]2O[C@H](CO)[C@H](O)[C@H](O)[C@H]2O)cc1 [pNPGal, p-Nitrophenyl-β-D-galactopyranoside] here?
Answer: 5.72 ± 0.45 mM

Question: How did the Km turn out when O=[N+]([O-])c1ccc(O[C@@H]2O[C@H](CO)[C@@H](O)[C@H](O)[C@H]2O)cc1 [pNPGlc, p-Nitrophenyl-β-D-glucopyranoside] was run?
Answer: 4.59 ± 0.49 mM

Reference: publication PMC7180739, “Aggregation and Molecular Properties of β-Glucosidase Isoform II in Chayote (Sechium edule)” (Molecules, 2020)
